Source: patent US20240382489A1, “LIQUID PHARMACEUTICAL COMPOSITION” (Verona Pharma PLC, priority 2023, published 2024)

Test system: patients aged 40-80 years with moderate to severe COPD
Assay: Clinical study of nebulised ensifentrine vs placebo in COPD: lung function (FEV1)
Assay type: in vivo, human
Conditions: 3 mg BID by nebuliser
Protocol: A clinical study was conducted to determine the efficacy of ensifentrine in treating COPD compared with placebo. Ensifentrine was administered by nebuliser at a dose of 3 mg twice daily (BID) for 24 weeks. The study was a multi-centre, randomized, double-blind, parallel-group, placebo-controlled trial with around 800 patients and 5:3 randomization.
The study population included patients aged 40-80 years with moderate to severe COPD (FEV130%-70% p.n., FEV1/forced vital capacity (FVC) ratio<0.7, with mMRC≥2). The randomization stratified (a) the use of stable background maintenance LAMA or LABA therapy use (approx. 50%. yes or no) and (b) cigarette smoking (current or former). Inhaled corticosteroid (ICS) maintenance therapy was permitted in up to 20% of patients under certain provisions.
The primary endpoint of the study was change from baseline in average FEV1 area under the curve (AUC)0-12 h post-dose at week 12. Secondary endpoints of the study included: peak FEV1 over 4 hours post-dose at Week 12; morning trough FEV1 at Week 12; and other endpoints including moderate/severe COPD exacerbations frequency over 24 Weeks.
Baseline FEV1 is the mean of the two measurements taken before study medication on the day of first dosing, i.e., ≤40 minutes and just prior to dosing, both pre-dose on day 1. […]

COc1cc2c(cc1OC)-c1c/c(=N\c3c(C)cc(C)cc3C)n(CCNC(N)=O)c(=O)n1CC2 [Ensifentrine, N-(2-{(2E)-9,10-dimethoxy-4-oxo-2-[(2,4,6-trimethylphenyl)imino]-6,7-dihydro-2H-pyrimido[6,1-a]isoquinolin-3(4H)-yl}ethyl)urea]
improvement in lung function in all subgroups of COPD patients: statistically significant improvement in lung function
